Measured values taken from the supplement of paper PMC10307832.

Legend:
Test in all cases: relative viability (nuclei count vs DMSO), 5 days (fraction); higher = more cells survive
XMD13-2 + Phenformin = compound: C1CC1C(=O)NC2=NNC3=C2C=CC(=C3)C4=CC(=CC=C4)C(=O)NC5CC5 [XMD13-2] + N=C(N)NC(=N)NCCc1ccccc1 [Phenformin] (partner 250 µM)
Procedure, shortened: (§1)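 Relative viability is defined as nuclei in treated wells over nuclei in vehicle wells. Duplicate plates were run and medians reported. Lung cancer cell lines in 1536-well plates were dosed by pin tool one day after seeding, with one drug or with a fixed anchor-drug dose plus five library-drug doses (not always all listed) in √10 steps, and nuclei were counted after 5 days.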

[1] = compound: Cc1ccc(C(=O)Nc2cccc(C(F)(F)F)c2)cc1Nc1cncc(C(N)=O)c1 [ALW-II-49-7] + CC(=O)c1c(C)c2cnc(Nc3ccc(N4CCNCC4)cn3)nc2n(C2CCCC2)c1=O [Palbociclib] (partner 0.5 µM)
Procedure, shortened: as §1

ALW-II-49-7 + Crizotinib = compound: Cc1ccc(C(=O)Nc2cccc(C(F)(F)F)c2)cc1Nc1cncc(C(N)=O)c1 [ALW-II-49-7] + C[C@@H](Oc1cc(-c2cnn(C3CCNCC3)c2)cnc1N)c1c(Cl)ccc(F)c1Cl [Crizotinib] (partner 1 µM)
Procedure, shortened: as §1

Dasatinib + Foretinib = compound: Cc1nc(Nc2ncc(C(=O)Nc3c(C)cccc3Cl)s2)cc(N2CCN(CCO)CC2)n1 [Dasatinib] + COc1cc2c(Oc3ccc(NC(=O)C4(C(=O)Nc5ccc(F)cc5)CC4)cc3F)ccnc2cc1OCCCN1CCOCC1 [Foretinib] (partner 0.25 µM)
Procedure, shortened: as §1

Row | Cell Line | relative viability (XMD13-2 + Phenformin; first compound 0.05 µM) | relative viability (XMD13-2 + Phenformin; first compound 0.1581 µM) | relative viability (XMD13-2 + Phenformin; first compound 0.5 µM) | relative viability (XMD13-2 + Phenformin; first compound 1.581 µM) | relative viability (XMD13-2 + Phenformin; first compound 5 µM) | relative viability ([1]; first compound 0.08 µM) | relative viability ([1]; first compound 0.253 µM) | relative viability ([1]; first compound 0.8 µM) | relative viability ([1]; first compound 2.53 µM) | relative viability ([1]; first compound 8 µM) | relative viability (ALW-II-49-7 + Crizotinib; first compound 0.08 µM) | relative viability (ALW-II-49-7 + Crizotinib; first compound 0.253 µM) | relative viability (ALW-II-49-7 + Crizotinib; first compound 0.8 µM) | relative viability (ALW-II-49-7 + Crizotinib; first compound 2.53 µM) | relative viability (ALW-II-49-7 + Crizotinib; first compound 8 µM) | relative viability (Dasatinib + Foretinib; first compound 0.005 µM) | relative viability (Dasatinib + Foretinib; first compound 0.01581 µM) | relative viability (Dasatinib + Foretinib; first compound 0.05 µM) | relative viability (Dasatinib + Foretinib; first compound 0.1581 µM) | relative viability (Dasatinib + Foretinib; first compound 0.5 µM)
1 | HCC-44 | 0.217 | 0.161 | 0.213 | 0.269 | 0.183 | 0.961 | 1.02 | 0.972 | 0.871 | 0.864 | 0.902 | 0.773 | 0.729 | 0.823 | 0.782 |  |  |  |  | 
2 | HCC-78 | 0.831 | 0.755 | 0.661 | 0.671 | 0.684 | 0.434 | 0.47 | 0.488 | 0.509 | 0.416 | 0.335 | 0.321 | 0.32 | 0.297 | 0.371 | 0.549 | 0.461 | 0.384 | 0.302 | 0.249
3 | HCC-366 | 0.705 | 0.577 | 0.633 | 0.569 | 0.611 | 0.354 | 0.454 | 0.388 | 0.299 | 0.326 | 0.777 | 0.592 | 0.382 | 0.682 | 0.609 | 0.739 | 0.588 | 0.543 | 0.563 | 0.449
4 | HCC-827 | 0.443 | 0.366 | 0.405 | 0.478 | 0.392 | 0.44 | 0.465 | 0.466 | 0.367 | 0.391 | 0.898 | 0.913 | 0.886 | 0.941 | 0.906 | 1.06 | 0.898 | 0.748 | 0.288 | 0.0947
5 | HOP-62 | 0.671 | 0.687 | 0.837 | 0.595 | 0.553 | 0.49 | 0.423 | 0.461 | 0.33 | 0.336 | 0.855 | 1.05 | 1.02 | 0.563 | 0.817 | 1.18 | 1.12 | 1 | 0.518 | 0.197
6 | IA-LM |  |  |  |  |  |  |  |  |  |  | 0.825 | 0.754 | 0.745 | 0.346 | 0.18 | 1.16 | 1.09 | 1.1 | 0.634 | 0.462
7 | LC-2-ad | 0.586 | 0.584 | 0.669 | 0.546 | 0.528 | 0.455 | 0.488 | 0.435 | 0.506 | 0.526 | 0.354 | 0.461 | 0.476 | 0.378 | 0.393 | 1.04 | 0.802 | 0.473 | 0.369 | 0.293
8 | LCLC-97TM1 | 0.441 | 0.441 | 0.425 | 0.492 | 0.459 | 0.198 | 0.215 | 0.214 | 0.188 | 0.235 | 0.609 | 0.262 | 0.532 | 0.313 | 0.297 | 0.968 | 0.955 | 1.04 | 0.78 | 0.461
9 | LCLC-103H | 0.397 | 0.357 | 0.357 | 0.326 | 0.343 | 0.486 | 0.533 | 0.494 | 0.495 | 0.55 | 1.04 | 1.06 | 1.07 | 1.02 | 1.18 | 0.725 | 0.626 | 0.55 | 0.378 | 0.157
